The target of this test is human cannabinoid CB2 receptor (Homo sapiens, UniProt P34972). Kind of test: Cannabinoid CB2 receptor agonist activity (yeast reporter assay, FDGlu fluorescence). Type of test: cell-based. The note with it: for Emax: read-out: efficacy value (Emax relative to HU210) at the cloned human cannabinoid CB2 receptor. Summed up: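 S. cerevisiae MMY23 expressing human CB2 with a Gpa1/Gαi3 chimeric G-protein, grown 24 h at 30 °C with agonist (1% DMSO) in selective media containing 10 mM 3-aminotriazole and FDGlu, pH 7.0. Fluorescein fluorescence (485/535 nm) fitted by four-parameter curve; Emax and EMR relative to HU210.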
(In general: In a reporter assay the amount or activity of a reporter protein is the signal.)

Setting [1] is: EC50 value at the cloned human cannabinoid CB2 receptor.

Like-named read-outs stand apart in the source and are kept apart here.

Chain of human cannabinoid CB2 receptor (P34972 whole entry): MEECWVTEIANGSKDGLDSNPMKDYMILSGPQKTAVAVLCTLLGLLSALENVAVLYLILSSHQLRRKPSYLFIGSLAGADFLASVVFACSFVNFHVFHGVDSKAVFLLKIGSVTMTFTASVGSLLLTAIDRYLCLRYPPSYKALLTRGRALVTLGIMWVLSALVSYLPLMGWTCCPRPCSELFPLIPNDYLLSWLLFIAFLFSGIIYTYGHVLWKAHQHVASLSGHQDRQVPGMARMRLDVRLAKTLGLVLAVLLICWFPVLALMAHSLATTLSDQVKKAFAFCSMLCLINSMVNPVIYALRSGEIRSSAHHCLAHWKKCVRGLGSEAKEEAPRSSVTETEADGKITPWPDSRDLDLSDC

With `O=C(NCC1CCSCC1)c1cnc(Nc2cccc(Cl)c2)nc1C(F)(F)F` [Example 255, 2-(3-Chlorophenylamino)-4-trifluoromethyl-pyrimidine-5-carboxylic acid (tetrahydrothiopyran-4-ylmethyl) amide], the Emax – broadly, the greatest response seen or fitted, relative to the assay's reference – was over 50%. Further, the EC50 – broadly, the concentration that produces a half-maximal response – under setting [1] is 20 to 300 nM.

The compound `N#Cc1ccc(CNC(=O)c2cnc(Nc3cc(Cl)cc(Cl)c3)nc2C(F)(F)F)cc1` [Example 291, 2-(3,5-Dichlorophenylamino)-4-trifluoromethylpyrimidine-5-carboxylic acid 4-cyanobenzylamide] displayed an EC50 under setting [1] of 20 to 300 nM.

With `O=C(NCc1ccccc1)c1cnc(Nc2ccc(Cl)cc2Cl)nc1C(F)(F)F` [Example 273, 2-(2,4-Dichlorophenylamino)-4-trifluoromethylpyrimidine-5-carboxylic acid benzyl-amide], under setting [1], the concentration for a half-maximal effect (EC50) was 20 to 300 nM.

`CN(CC1CCCC1)C(=O)c1cnc(Nc2cccc(Cl)c2)nc1C(F)(F)F` [Example 190, 2-(3-Chlorophenylamino)-4-trifluoromethyl-pyrimidine-5-carboxylic acid cyclopentylmethyl-methyl-amide]: the maximal response (Emax) is over 50%. The compound also yielded a concentration giving a half-maximal response (EC50) under setting [1] of 20 to 300 nM.

As to `O=C(NCC1CCC1)c1cnc(Nc2cc(F)cc(F)c2)nc1C(F)(F)F` [Example 192, 2-(3,5-Difluorophenylamino)-4-trifluoromethyl-pyrimidine-5-carboxylic acid cyclobutylmethyl-amide], the maximal response (Emax) is over 50%. In addition, the EC50 under setting [1] fell in the range of 20 to 300 nM.

Take `O=C(c1cnc(Nc2cc(Cl)ccc2Cl)nc1C(F)(F)F)N1CCCCC1` [Example 85, 1-[2-(2,5-Dichloro-phenylamino)-4-tri-fluoromethyl-pyrimidin-5-yl]-1-piperidin-1-yl-methanone]: the Emax was over 50%. The same compound had an EC50 under setting [1] of 300 to 1000 nM.

Take `O=C(NCC1CCC1)c1cnc(Nc2ccc(Cl)c(Cl)c2)nc1C(F)(F)F` [Example 204, 2-(3,4-Dichlorophenylamino)-4-trifluoromethyl-pyrimidine-5-carboxylic acid cyclobutylmethyl-amide]: the Emax was over 50%. Moreover, the EC50 under setting [1] was in the range of 20 to 300 nM.

For the compound `COc1cccc(Nc2ncc(C(=O)NC3CCCC3)c(C(F)(F)F)n2)c1` [Example 76, 3-Methoxyphenylamino-4-trifluoromethyl-pyrimidine-5-carboxylic acid cyclopentylamide], the Emax was over 50%. The same compound had an EC50 under setting [1] of 300 to 1000 nM.

`O=C(NC1CCC1)c1cnc(Nc2c(Cl)cccc2Cl)nc1C(F)(F)F` [Example 51, 2-(2,6-Dichlorophenylamino)-4-trifluoromethylpyrimidine-5-carboxylic acid N-cyclobutylamide]: the Emax was over 50%. Under setting [1], this compound showed an EC50 of 20 to 300 nM.

`COc1cccc(Nc2ncc(C(=O)NCC3CCC3)c(C(F)(F)F)n2)c1` [Example 205, 2-(3-Methoxyphenylamino)-4-trifluoromethyl-pyrimidine-5-carboxylic acid cyclobutylmethyl-amide]: the Emax was over 50%. Moreover, under setting [1], the half-maximal effective concentration (EC50) lay within 20 to 300 nM.

On to `O=C(NCC1CCCCC1)c1cnc(Nc2cccc(F)c2F)nc1C(F)(F)F` [Example 242, 2-(2,3-Difluorophenylamino)-4-trifluoromethyl-pyrimidine-5-carboxylic acid cyclohexylmethyl-amide], for which the Emax is over 50%. Moreover, the 50% effective concentration (EC50) under setting [1] was 20 to 300 nM.

Turning to `CC(C)c1cc(Nc2cccc(C(F)(F)F)c2)ncc1C(=O)NCc1ccc(F)cc1` [Example 393, N-(4-Fluoro-benzyl)-4-isopropyl-6-(3-trifluoromethyl-phenylamino)-nicotinamide], the Emax is over 50%.

For `N#Cc1cc(C#N)cc(Nc2ncc(C(=O)NCC3CCCCC3)c(C(F)(F)F)n2)c1` [Example 89, 2-(3,5-Dicyano-phenylamino)-4-trifluoromethyl-pyrimidine-5-carboxylic acid cyclohexylmethyl-amide], the Emax was over 50%. The compound also registered an EC50 under setting [1] of 300 to 1000 nM.

Take `O=C(NCC1CCOCC1)c1cnc(Nc2ccc(Br)cc2F)nc1C(F)(F)F` [Example 232, 2-(2-Fluoro-4-bromo-phenylamino)-4-trifluoromethyl-pyrimidine-5-carboxylic acid (tetrahydro-pyran-4-ylmethyl)-amide]: the Emax is over 50%. The compound also registered a concentration giving a half-maximal response (EC50) under setting [1] of 20 to 300 nM.

Regarding `O=C(NCC1CCOCC1)c1cnc(Nc2ccc(F)cc2Cl)nc1C(F)(F)F` [Example 233, 2-(2-Chloro-4-fluoro-phenylamino)-4-trifluoromethyl-pyrimidine-5-carboxylic acid (tetrahydro-pyran-4-ylmethyl)-amide], the Emax was over 50%. Under setting [1], this compound had a 50% effective concentration (EC50) of 20 to 300 nM.

As for `O=C(NCc1ccncc1)c1cnc(Nc2cccc(Cl)c2)nc1C(F)(F)F` [Example 267, 2-(3-Chlorophenylamino)-4-trifluoromethylpyrimidine-5-carboxylic acid (pyridin-4-ylmethyl)amide], the concentration giving a half-maximal response (EC50) under setting [1] is 20 to 300 nM.

In the case of `N#Cc1cccc(Nc2ncc(C(=O)NCc3ccccc3)c(C(F)(F)F)n2)c1` [Example 362, 2-(3-Cyano-phenylamino)-4-trifluoromethyl-pyrimidine-5-carboxylic acid benzylamide], the maximal effect (Emax) is over 50%. The concentration giving a half-maximal response (EC50) under setting [1] was in the range of 20 to 300 nM.

On to `Cc1ccc(Cl)cc1Nc1ncc(C(=O)NCC2CCC2)c(C(F)(F)F)n1` [Example 259, 2-(5-Chloro-2-methylphenylamino)-4-trifluoromethyl-pyrimidine-5-carboxylic acid cyclobutylmethyl-amide], for which the maximal response (Emax) was over 50%. Under setting [1], the EC50 was 300 to 1000 nM.

On to `COc1ccccc1CNC(=O)c1cnc(Nc2cccc(Cl)c2)nc1C(F)(F)F` [2-(3-Chloro-phenylamino)-4-trifluoromethyl-pyrimidine-5-carboxylic acid 2-methoxy-benzylamide], for which the “activity in the CB2 assay described herein” value is “inactive”.

Regarding `COc1cccc(Nc2ncc(C(=O)NCC3CCOCC3)c(C(F)(F)F)n2)c1` [Example 37, 2-(3-Methoxyphenylamino)-4-trifluoromethylpyrimidine-5-carboxylic acid (tetrahydropyran-4-ylmethyl)-amide], the maximal effect (Emax) is over 50%. The concentration giving a half-maximal response (EC50) under setting [1] fell in the range of 20 to 300 nM.

Turning to `O=C(NC1CCCC1)c1cnc(Nc2ccc(Cl)cc2Cl)nc1C(F)(F)F` [Example 208, 2-(2,4-Dichlorophenylamino)-4-trifluoromethyl-pyrimidine-5-carboxylic acid cyclopentylamide], the maximum response (Emax) was over 50%. Further, the 50% effective concentration (EC50) under setting [1] is 20 to 300 nM.

Take `CC(C)(C)c1ccc(Nc2ncc(C(=O)NCc3ccccc3)c(C(F)(F)F)n2)cc1` [2-(4-tert-butyl-phenylamino)-4-trifluoromethyl-pyrimidine-5-carboxylic acid benzylamide]: the “activity in the CB2 assay described herein” value is “inactive”.

With `O=C(NCC1CCCC1)c1cnc(Nc2ccccc2)nc1C(F)(F)F` [Example 251, 2-(Phenylamino)-4-trifluoromethyl-pyrimidine-5-carboxylic acid cyclopentylmethyl-amide], the maximal effect (Emax) was over 50%. The EC50 under setting [1] lay in the range of 20 to 300 nM.

For the compound `CSc1c(Nc2ncc(C(=O)NCC3CCOCC3)c(C(F)(F)F)n2)cccc1C(F)(F)F` [Example 182, 2-(2-Methylthio-3-(trifluoromethyl)phenylamino)-4-trifluoromethyl-pyrimidine-5-carboxylic acid (tetrahydropyran-4-ylmethyl)-amide], the Emax was over 50%. This compound came in with a concentration giving a half-maximal response (EC50) under setting [1] of 20 to 300 nM.

`COc1ccccc1Nc1ncc(C(=O)N(C)Cc2ccccc2)c(C(F)(F)F)n1` [Example 296, 2-(2-Methoxy-phenylamino)-4-trifluoromethyl-pyrimidine-5-carboxylic acid N-benzyl-N-methyl-amide]: where the note is “read-out: EC50 value at the cloned human cannabinoid CB2 receptor”, the 50% effective concentration (EC50) lay in the range of 300 to 1000 nM.

As for `O=C(NCC1CCOCC1)c1cnc(Nc2cccc(C(F)(F)F)c2F)nc1C(F)(F)F` [Example 181, 2-(2-Fluoro-3-(trifluoromethyl)phenylamino)-4-trifluoromethyl-pyrimidine-5-carboxylic acid (tetrahydropyran-4-ylmethyl)-amide], the maximal response (Emax) was over 50%. The concentration for a half-maximal effect (EC50) under setting [1] was 20 to 300 nM.

In the case of `O=C(NCC1CCOCC1)c1cnc(Nc2cccc(Cl)c2)nc1C(F)(F)F` [Example 22, 2-(3-Chlorophenylamino)-4-trifluoromethylpyrimidine-5-carboxylic acid (tetrahydro-pyran-4-ylmethyl)-amide], the Emax was over 50%. In addition, the EC50 under setting [1] lay in the range of 20 to 300 nM.

For the compound `O=C(NCC1CCOCC1)c1ccc(Nc2cccc(Cl)c2)nc1C(F)(F)F` [Example 662, 6-(3-Chloro-phenylamino)-N-(tetrahydro-pyran-4-ylmethyl)-2-trifluoromethyl-nicotinamide], the Emax was over 50%.

Regarding `COc1cc(Nc2ncc(C(=O)NCC3CCOCC3)c(C(F)(F)F)n2)ccc1Cl` [Example 186, 2-(4-Chloro-3-methoxyphenylamino)-4-trifluoromethyl-pyrimidine-5-carboxylic acid (tetrahydropyran-4-ylmethyl)-amide], the Emax was over 50%. Under setting [1], this compound yielded an EC50 of 20 to 300 nM.

Regarding `O=C(NCC1CCCCC1)c1cnc(Nc2ccc(Br)cc2Cl)nc1C(F)(F)F` [Example 225, 2-(2-Chloro-4-bromo-phenylamino)-4-trifluoromethyl-pyrimidine-5-carboxylic acid cyclohexylmethyl-amide], the Emax is over 50%. Moreover, the EC50 under setting [1] lay in the range of 20 to 300 nM.

The compound `O=C(NCc1ccnc(F)c1)c1cnc(Nc2cccc(Br)c2)nc1C(F)(F)F` [Example 353, 2-(3-Bromo-phenylamino)-4-trifluoromethyl-pyrimidine-5-carboxylic acid (2-fluoro-pyridin-4-ylmethyl)-amide] had an EC50 under setting [1] of 20 to 300 nM.

With `O=C(NCc1ccc(F)cc1)c1cnc(Nc2ccc(C(F)(F)F)c(F)c2)nc1C(F)(F)F` [Example 369, 2-(3-Fluoro-4-trifluoromethyl-phenylamino)-4-trifluoromethyl-pyrimidine-5-carboxylic acid 4-fluoro-benzylamide], the EC50 under setting [1] fell in the range of 20 to 300 nM.

The record behind these values is patent US20080132505A1 (Glaxo Group Limited, priority 2004, published 2008).
